Values joined by “and” are separate entries in the source; they are usually repeats but may differ in a detail not shown here. Equal entries are not always repeated. Active and inactive are the calls of the source.
Tests used:
[1] = target: T1, Short transient receptor potential channel 4 (Mus musculus, UniProt Q9QUQ5); experiment: calcium entry via TRPC4 opening agents – cell-based, HEK293 TRPC4/mu-opioid, Fluo-4 calcium, dose response (AID 434937); assay type: functional
T1 sequence (Q9QUQ5 whole entry): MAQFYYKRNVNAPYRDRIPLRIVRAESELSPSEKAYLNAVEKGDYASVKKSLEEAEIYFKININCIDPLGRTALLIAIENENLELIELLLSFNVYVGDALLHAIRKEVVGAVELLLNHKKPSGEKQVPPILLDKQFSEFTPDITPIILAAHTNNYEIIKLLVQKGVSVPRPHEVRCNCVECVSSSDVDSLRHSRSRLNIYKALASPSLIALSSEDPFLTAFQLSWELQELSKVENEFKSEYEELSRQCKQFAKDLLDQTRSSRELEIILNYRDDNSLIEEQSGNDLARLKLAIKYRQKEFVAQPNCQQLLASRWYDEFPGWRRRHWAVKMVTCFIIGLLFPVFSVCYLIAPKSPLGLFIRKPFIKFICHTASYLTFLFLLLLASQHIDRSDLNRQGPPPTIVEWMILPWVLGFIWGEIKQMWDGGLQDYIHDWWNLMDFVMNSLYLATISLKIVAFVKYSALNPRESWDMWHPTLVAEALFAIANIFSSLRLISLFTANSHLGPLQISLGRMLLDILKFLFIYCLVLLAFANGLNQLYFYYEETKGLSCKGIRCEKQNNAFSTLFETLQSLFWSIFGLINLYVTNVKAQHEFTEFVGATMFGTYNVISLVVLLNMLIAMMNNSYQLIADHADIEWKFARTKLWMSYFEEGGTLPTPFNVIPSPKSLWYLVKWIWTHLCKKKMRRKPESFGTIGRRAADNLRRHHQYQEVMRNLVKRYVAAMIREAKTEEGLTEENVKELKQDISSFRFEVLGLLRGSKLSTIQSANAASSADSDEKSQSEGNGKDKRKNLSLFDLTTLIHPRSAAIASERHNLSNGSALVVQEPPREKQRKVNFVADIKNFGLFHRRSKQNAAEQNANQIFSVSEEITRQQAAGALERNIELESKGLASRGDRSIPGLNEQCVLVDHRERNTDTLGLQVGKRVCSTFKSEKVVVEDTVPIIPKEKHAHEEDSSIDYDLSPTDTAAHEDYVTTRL

Vero = experiment: cells; assay type: functional; settings: Chlorocebus sabaeus
[2] = target: Heat shock protein HSP 90-alpha (Homo sapiens, UniProt P07900); assay type: functional, organism-based
[3] = target: T2, Apoptotic protease-activating factor 1 (Homo sapiens, UniProt O14727); assay type: functional
T2 sequence (O14727 whole entry): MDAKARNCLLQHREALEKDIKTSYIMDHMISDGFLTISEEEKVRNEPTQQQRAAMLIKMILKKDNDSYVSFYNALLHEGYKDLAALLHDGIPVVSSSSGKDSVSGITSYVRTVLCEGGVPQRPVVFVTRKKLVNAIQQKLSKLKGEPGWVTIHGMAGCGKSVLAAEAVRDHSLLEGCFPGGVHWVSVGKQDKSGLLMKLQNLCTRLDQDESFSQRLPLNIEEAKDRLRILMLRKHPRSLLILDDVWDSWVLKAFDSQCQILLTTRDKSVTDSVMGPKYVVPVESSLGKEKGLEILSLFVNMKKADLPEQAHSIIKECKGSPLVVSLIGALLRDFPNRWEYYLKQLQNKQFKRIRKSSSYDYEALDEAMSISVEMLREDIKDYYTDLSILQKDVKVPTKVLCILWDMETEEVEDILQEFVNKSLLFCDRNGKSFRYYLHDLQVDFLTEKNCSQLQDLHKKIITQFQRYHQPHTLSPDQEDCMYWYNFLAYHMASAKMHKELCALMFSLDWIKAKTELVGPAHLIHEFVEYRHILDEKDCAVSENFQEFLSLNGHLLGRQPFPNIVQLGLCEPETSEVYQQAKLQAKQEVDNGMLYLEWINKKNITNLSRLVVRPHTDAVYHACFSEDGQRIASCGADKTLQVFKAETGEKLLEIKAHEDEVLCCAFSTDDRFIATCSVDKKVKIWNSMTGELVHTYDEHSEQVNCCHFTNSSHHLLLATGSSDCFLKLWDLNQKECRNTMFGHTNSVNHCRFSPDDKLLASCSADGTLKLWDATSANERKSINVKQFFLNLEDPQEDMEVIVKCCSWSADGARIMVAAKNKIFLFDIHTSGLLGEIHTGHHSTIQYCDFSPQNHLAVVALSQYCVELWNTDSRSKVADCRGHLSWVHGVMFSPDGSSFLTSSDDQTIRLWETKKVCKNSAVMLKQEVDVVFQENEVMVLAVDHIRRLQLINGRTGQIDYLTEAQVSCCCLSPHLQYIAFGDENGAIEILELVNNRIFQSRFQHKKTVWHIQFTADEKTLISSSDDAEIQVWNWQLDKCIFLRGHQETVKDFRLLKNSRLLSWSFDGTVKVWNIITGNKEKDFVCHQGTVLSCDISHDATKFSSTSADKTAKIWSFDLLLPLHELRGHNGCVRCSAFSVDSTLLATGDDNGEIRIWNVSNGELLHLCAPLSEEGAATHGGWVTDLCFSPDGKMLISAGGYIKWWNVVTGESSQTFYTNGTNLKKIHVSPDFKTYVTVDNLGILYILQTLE

Large T antigen = Large T antigen (Simian virus 40, UniProt P03070); assay type: functional, Betapolyomavirus macacae;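 note: Confirmatory-stage PubChem screen for compounds that inhibit SV40 T antigen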
[4] = target: T1, Short transient receptor potential channel 4; experiment: block of DAMGO-driven TRPC4 calcium entry – cell-based, HEK293 TRPC4/mu-opioid, Fluo-4 calcium, dose response (AID 434942); assay type: functional;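 note: potency of inhibitors blocking the TRPC4 calcium response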
INS1 = experiment: INS-1E survival protection against cytokine death – cell-based, luminescence, retest, dose response (AID 449756); assay type: functional; settings: Rattus norvegicus;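 note: cell death triggered by IL-1 beta plus TNF-alpha plus IFN-gamma mixture; protective hits raise ATP signal compared with cytokine alone wells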
Cytochrome P450 2C9 = Cytochrome P450 2C9 (Homo sapiens, UniProt P11712)
Cytochrome P450 3A4 = Cytochrome P450 3A4 (Homo sapiens, UniProt P08684);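 note: CYP3A4 tested as one member of a cytochrome P450 panel screen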
[5] = non-specific 3'UTR reporter inhibition in Clone20-Shn3RL – cell-based, Renilla luciferase, cherry-picked, counter-screen for Shn3 inhibitor project, dose response (AID 624133); assay type: functional
[6] = loss of viability in HepG2 cells – cell-based, CellTiter-Glo, cherry-picked, cytotoxicity control for Shn3 inhibitor project, dose response (AID 624134); assay type: functional
[7] = reduction of Shn3 3'UTR-driven luciferase in osteoblasts – cell-based, Clone20 osteoblasts, firefly luciferase, cherry-picked, dose response (AID 624132); assay type: functional;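 note: firefly luciferase luminescence from reporter carrying the Shn3 3'UTR in osteoblasts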
[8] = target: T3, Nuclear receptor subfamily 0 group B member 1 (Homo sapiens, UniProt P51843); assay type: functional, cell-based;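 note: HEK293T cells transfected with SF-1 and DAX-1 plus StAR promoter luciferase reporter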
T3 sequence (P51843 whole entry): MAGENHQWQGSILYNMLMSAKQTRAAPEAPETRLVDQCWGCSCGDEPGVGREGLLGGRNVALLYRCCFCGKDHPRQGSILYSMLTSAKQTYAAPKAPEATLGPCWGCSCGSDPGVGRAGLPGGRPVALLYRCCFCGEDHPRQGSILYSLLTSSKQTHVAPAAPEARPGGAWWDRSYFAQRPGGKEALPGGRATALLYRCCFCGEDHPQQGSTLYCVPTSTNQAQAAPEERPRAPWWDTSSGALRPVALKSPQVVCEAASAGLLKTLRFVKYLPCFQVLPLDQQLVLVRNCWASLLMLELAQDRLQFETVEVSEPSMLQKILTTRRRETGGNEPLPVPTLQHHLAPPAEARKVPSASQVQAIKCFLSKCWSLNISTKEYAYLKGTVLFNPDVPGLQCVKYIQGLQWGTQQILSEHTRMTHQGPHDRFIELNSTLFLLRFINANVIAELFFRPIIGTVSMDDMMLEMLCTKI

cells = assay type: functional, cell-based
Paired box protein Pax-8 = Paired box protein Pax-8 (Homo sapiens, UniProt Q06710); experiment: PAX8 transcriptional activity inhibition in RMG-I – RMG-I cells, luciferase, cherry-pick, dose response (AID 687027); assay type: functional, cell-based;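 note: luciferase reporter driven by Pax8 target thyroperoxidase promoter measured by SteadyGlo luminescence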
[9] = target: FAD-linked sulfhydryl oxidase ALR (Homo sapiens, UniProt P55789); experiment: ALR-catalysed DTT oxidation blockers – biochemical, H2O2 detection, luminescence, cherry-pick, dose response (AID 493248)
Sequence of FAD-linked sulfhydryl oxidase ALR (P55789 whole entry): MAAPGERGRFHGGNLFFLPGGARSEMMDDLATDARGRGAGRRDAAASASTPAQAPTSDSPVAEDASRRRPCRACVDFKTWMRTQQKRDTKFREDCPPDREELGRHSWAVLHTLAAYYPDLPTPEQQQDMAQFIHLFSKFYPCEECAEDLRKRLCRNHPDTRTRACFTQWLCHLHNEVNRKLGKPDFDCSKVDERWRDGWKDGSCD

Sequence of Cytochrome P450 2C9 (P11712 whole entry): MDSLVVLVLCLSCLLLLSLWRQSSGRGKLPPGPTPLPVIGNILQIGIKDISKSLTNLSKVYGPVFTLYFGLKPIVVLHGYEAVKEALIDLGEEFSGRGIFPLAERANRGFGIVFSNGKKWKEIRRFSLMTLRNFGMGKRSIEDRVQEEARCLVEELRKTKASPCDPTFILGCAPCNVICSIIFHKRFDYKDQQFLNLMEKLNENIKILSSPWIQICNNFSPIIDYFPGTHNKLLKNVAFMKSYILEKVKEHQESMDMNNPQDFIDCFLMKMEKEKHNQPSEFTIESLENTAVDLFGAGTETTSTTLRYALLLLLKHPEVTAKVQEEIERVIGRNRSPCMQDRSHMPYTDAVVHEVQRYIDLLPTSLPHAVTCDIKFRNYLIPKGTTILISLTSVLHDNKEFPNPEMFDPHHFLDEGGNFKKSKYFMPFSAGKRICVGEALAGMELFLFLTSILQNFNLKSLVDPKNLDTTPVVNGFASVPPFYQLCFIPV
Sequence of Large T antigen (P03070 whole entry): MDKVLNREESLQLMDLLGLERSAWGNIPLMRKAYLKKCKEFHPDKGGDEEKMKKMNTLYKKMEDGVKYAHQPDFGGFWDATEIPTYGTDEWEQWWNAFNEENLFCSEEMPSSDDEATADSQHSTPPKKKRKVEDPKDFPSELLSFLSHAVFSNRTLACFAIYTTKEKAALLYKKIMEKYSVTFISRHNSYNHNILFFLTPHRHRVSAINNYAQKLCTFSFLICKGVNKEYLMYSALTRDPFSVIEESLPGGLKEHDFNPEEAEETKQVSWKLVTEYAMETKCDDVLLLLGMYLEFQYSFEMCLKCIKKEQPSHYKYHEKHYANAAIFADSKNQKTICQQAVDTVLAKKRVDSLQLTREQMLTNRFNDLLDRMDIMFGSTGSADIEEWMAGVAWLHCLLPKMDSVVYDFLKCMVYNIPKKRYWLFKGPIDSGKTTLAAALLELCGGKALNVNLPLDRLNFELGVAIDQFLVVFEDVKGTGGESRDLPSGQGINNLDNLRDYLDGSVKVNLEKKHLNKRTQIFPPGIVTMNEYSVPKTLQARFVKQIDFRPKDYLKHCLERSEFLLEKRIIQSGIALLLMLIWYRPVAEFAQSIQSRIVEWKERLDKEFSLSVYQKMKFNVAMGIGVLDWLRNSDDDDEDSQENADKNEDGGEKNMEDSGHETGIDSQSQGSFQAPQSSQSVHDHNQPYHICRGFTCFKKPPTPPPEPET
Sequence of Paired box protein Pax-8 (Q06710 whole entry): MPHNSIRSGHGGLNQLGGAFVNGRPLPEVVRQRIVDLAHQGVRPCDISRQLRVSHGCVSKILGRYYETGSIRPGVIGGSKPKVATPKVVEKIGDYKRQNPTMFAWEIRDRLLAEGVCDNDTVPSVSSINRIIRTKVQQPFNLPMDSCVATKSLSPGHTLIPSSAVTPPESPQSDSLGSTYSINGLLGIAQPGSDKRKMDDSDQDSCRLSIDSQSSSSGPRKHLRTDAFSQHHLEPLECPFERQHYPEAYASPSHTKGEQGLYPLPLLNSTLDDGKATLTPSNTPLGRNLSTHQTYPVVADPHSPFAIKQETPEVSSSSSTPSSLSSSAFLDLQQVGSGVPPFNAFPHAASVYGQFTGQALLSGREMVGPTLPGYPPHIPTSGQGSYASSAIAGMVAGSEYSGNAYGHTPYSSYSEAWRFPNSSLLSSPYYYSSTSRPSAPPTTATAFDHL
Sequence of Cytochrome P450 3A4 (P08684 whole entry): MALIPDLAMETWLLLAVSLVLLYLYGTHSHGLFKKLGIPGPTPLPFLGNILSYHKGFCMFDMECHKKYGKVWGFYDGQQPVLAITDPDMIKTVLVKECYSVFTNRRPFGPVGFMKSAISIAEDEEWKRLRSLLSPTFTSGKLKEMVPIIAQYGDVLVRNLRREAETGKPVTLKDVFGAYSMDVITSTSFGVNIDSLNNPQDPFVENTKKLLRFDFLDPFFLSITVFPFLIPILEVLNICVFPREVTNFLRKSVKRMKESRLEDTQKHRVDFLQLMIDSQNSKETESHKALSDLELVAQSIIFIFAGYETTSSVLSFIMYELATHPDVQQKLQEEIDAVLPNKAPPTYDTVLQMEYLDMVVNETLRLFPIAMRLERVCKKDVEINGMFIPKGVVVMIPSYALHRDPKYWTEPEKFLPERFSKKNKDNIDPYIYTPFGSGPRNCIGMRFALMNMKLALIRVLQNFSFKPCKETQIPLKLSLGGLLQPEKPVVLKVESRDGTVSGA

## NCCSc1c(-c2ccc(Cl)cc2)[nH]c2ccccc12
[1]
  EC50: 4.73 µM (active)
Vero
  CC50: > 25 µM (active)

## Cc1cc(C)c2c(N=NN3CCCCC3)[nH]nc2n1
[2]
  AC50: 4.01 µM (active)

## COc1cc(-c2c(C#N)c(O)nc3c2c(C)nn3-c2ccccc2)ccc1O
[3]
  IC50: 20.5 µM (active)
Large T antigen
  IC50: > 100 µM (active)

## Cc1ccc(COn2c(-c3ccc(Cl)cc3Cl)nc3ncccc32)cc1
[1]
  EC50: 0.749 µM (active)
[4]
  EC50: 0.473 µM (active)

## CC(Oc1cccc(Cl)c1)C(=O)Nc1cc(S(=O)(=O)N2CCOCC2)ccc1N1CCCCC1 (stereo unspecified)
[3]
  IC50: 74.9 µM (active)
INS1
  AC50: 5.41 µM (active)

## CC(=O)O[C@]1(C(C)=O)CC[C@@H]2[C@@H]3C=C(Cl)C4=CC(=O)[C@H]5C[C@@H]5[C@]4(C)[C@H]3CC[C@]21C
Cytochrome P450 2C9
  AC50: 15.8 µM (inconclusive) and 31.6 µM (inconclusive)
Cytochrome P450 3A4
  AC50: inconclusive

## O=C(OCc1ccccc1)c1ccc(NCc2cc(O)ccc2O)cc1
[5]
  AC50: 3.87 µM (active)
[6]
  AC50: 22 µM (active)
[2]
  AC50: 8.63 µM (active)
[7]
  AC50: 0.711 µM (active)

## COc1c(C=O)c2c(c(OC)c1OC)-c1ccc(OC)c(=O)cc1C(NC(C)=O)CC2 (stereo unspecified)
[8]
  IC50: > 67.5 µM (inactive)
cells
  IC50: > 67.5 µM (inactive)
Paired box protein Pax-8
  AC50: < 0.26 µM (active)

## COc1ccc(/C=N/Nc2nc3ccccc3o2)cc1O
[8]
  IC50: > 67.5 µM (inactive)
cells
  IC50: > 67.5 µM (inactive)
[9]
  AC50: 2.59 µM (active)

From ChEMBL document CHEMBL1201862, “PubChem BioAssay data set” (2004)
